Results on 1 compound are retold here after patent publication US20110059967A1, “THERAPEUTIC COMPOUNDS” (Allergan Inc., priority 2008, published 2011).

In the test the test system is lashes and adjacent hairs. The experiment in a line: Observation of lashes and adjacent hairs in glaucoma patients treated with bimatoprost in only one eye. It counts as in vivo. Particulars: glaucoma patients taking bimatoprost in only one eye. The text has this: In the course of treating patients having glaucoma, treatment may only be appropriate in one eye. […] The lash appearance on the lids of the treated eyes would have appeared quite attractive if it represented a bilateral phenomenon. As a result of its asymmetric nature, the long lash'es on one side could be construed as disturbing from a cosmetic standpoint. A systemic examination was preformed as a result of the asymmetric phenomenon. It soon became apparent that this altered appearance was not an isolated finding. […] Definite differences could be identified to varying degrees in the lashes and adjacent hairs of all patients who were taking the drug on a unilateral basis for longer than 6 months.
The changes in the lashes were apparent on gross inspection in several patients once attention was focused on the issue. In those with light colored hair and lashes, the differences were only seen easily with the aid of the high magnification and lighting capabilities of the slit lamp biomicroscope. In the course of glaucoma follow-up examination, attention is generally immediately focused on the eye itself. As a result of the high power magnification needed only one eye is seen at a time and the eye is seen at a high enough power that the lashes are not in focus. […]

Entries after “also recorded” stand apart in the source; their conditions may differ.

Consider `CCNC(=O)CCC/C=C\C[C@@H]1[C@@H](/C=C/[C@@H](O)CCc2ccccc2)[C@H](O)C[C@@H]1O` [bimatoprost], for which the “hair growth: lashes of the treated eye compared with the non-treated eye” value was “longer, thicker, and fuller; also recorded: hair growth is stimulated”.
